Experimental data published in patent publication US4906662A, “Phenol derivatives, their preparation and the use thereof” (Otsuka Pharmaceutical Factory, Inc., priority 1986, dated 1990).

Tests used:
5-lipoxygenase = target: T1, 5-lipoxygenase (Cavia porcellus, UniProt A0A286X958); experiment: 5-Lipoxygenase inhibitory activity (5-HETE formation in guinea pig peritoneal exudate cells); type: cell-based; conditions: read-out: Percent inhibition of 5-lipoxygenase
T1 construct: endogenous in cells; host or cells: guinea pig peritoneal exudate cells (casein-elicited), intact cell suspension
T1 sequence (A0A286X958 1-674): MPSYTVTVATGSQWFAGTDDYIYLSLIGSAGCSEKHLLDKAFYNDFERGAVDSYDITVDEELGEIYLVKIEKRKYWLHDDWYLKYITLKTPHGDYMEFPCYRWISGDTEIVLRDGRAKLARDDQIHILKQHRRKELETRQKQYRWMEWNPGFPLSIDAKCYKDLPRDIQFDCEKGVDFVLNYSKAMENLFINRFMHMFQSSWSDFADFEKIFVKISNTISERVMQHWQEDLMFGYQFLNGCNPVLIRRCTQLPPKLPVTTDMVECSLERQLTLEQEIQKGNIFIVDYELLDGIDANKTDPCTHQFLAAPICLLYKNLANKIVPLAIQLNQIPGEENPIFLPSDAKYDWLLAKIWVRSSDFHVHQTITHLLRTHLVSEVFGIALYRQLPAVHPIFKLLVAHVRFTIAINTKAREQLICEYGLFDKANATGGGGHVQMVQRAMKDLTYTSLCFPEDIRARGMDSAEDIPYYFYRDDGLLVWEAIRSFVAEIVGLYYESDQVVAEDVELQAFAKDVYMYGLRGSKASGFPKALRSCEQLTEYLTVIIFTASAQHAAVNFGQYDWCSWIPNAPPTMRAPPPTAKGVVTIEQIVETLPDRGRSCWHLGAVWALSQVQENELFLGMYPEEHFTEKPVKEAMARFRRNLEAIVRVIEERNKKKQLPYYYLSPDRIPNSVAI
Procedure: (J. Biol. Chem., 256, 4156 (1981)) and to the method of Ochi et al. (J. Biol. Chem., 258, 5754 (1983). More specifically, 2% casein was intraperitoneally given to a guinea pig, which was bleeded to death 14 to 16 hours thereafter. The peritoneal cavity was washed to collect exudate cells, which were suspended in a phosphate buffer containing 1 mM CaCl2 and 5.5 mM glucose to a concentration of 2.5×10^7 cells/ml. The cell suspension was incubated at 30° C. for 2 minutes. The test compound was then added to the cell suspension, followed by incubation for 2 minutes. With addition of 10 μM of A23187 first and then 10 μM of ^14 C-arachidonic acid to the resulting suspension. Then, the suspension was incubated for 3 minutes. […] The arachidonic acid, 5(S)-hydroxy-6,8,11,14-eicosatetraenoic acid (5-HETE) and other portions were thereafter scraped off, and ^14 C was counted by a scintillator.

[1] = system: carrageenin-induced paw edema; experiment: Anti-inflammatory activity: inhibition of carrageenin-induced paw edema in rats; type: in vivo, rat (S.D. strain, male); conditions: po; 100 mg/kg p.o.; rat, 3 hours after carrageenin; read-out: Percent inhibition of edema
Procedure: (1) Anti-inflammatory activity:inhibition of carrageenin-induced paw edema in rats The compound was tested for the above activity according to the method of Winter et al. [Proc. Soc. […] One hour after the test compound was orally given to the animal, 0.1 ml of 1% carrageenin solution was subcutaneously injected into the right footpad. The paw volume was measured 3 hours thereafter, and the resulting increase in the volume was calculated based on the volume before the injection of carrageenin solution. The percent inhibition was determined in comparison with the increase in the control group.

- inhibition at 1 µM (5-lipoxygenase; 1 μM): 2%
- inhibition at 10 µM (5-lipoxygenase; 10 μM): 62%
SMILES: CC(C)(C)c1cc(Nc2ccccc2)cc(C(C)(C)C)c1O [2,6-di-tert-butyl-4-phenylaminophenol, reference compound]
- inhibition in vivo at 100 mg/kg [1]: 62%
